Laboratory results taken from PubChem BioAssay (NCI).
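Method: 48-hour compound exposure of cells in 96-well plates, five concentrations, linear interpolation of endpoints. GI50 is the concentration that inhibits growth by half. TGI: concentration producing complete growth inhibition.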

Tests used:
Test in all cases: NCI anticancer screen, dose series, 48 h
NCI-H23 lung = test system: NCI-H23 lung
K-562 leukemia = test system: K-562 leukemia
A498 renal = test system: A498 renal
KM12 colon = test system: KM12 colon
HOP-92 NSCLC = test system: HOP-92 NSCLC
HCC-2998 colon = test system: HCC-2998 colon
OVCAR-5 ovarian = test system: OVCAR-5 ovarian
HT29 colon = test system: HT29 colon
UO-31 renal = test system: UO-31 renal
RPMI-8226 leukemia = test system: RPMI-8226 leukemia
SK-MEL-28 melanoma = test system: SK-MEL-28 melanoma
MDA-MB-468 breast = test system: MDA-MB-468 breast
SF-539 CNS = test system: SF-539 CNS
T-47D breast = test system: T-47D breast
NCI-H226 lung = test system: NCI-H226 lung
MDA-MB-231 breast = test system: MDA-MB-231 breast
SF-268 CNS = test system: SF-268 CNS
M14 melanoma = test system: M14 melanoma
LOX IMVI melanoma = test system: LOX IMVI melanoma
MOLT-4 leukemia = test system: MOLT-4 leukemia
HS 578T breast = test system: HS 578T breast
MDA-MB-435 = test system: MDA-MB-435
NCI/ADR-RES ovarian = test system: NCI/ADR-RES ovarian
OVCAR-3 ovarian = test system: OVCAR-3 ovarian
UACC-257 melanoma = test system: UACC-257 melanoma
PC-3 prostate = test system: PC-3 prostate
OVCAR-8 ovarian = test system: OVCAR-8 ovarian
786-0 renal = test system: 786-0 renal
HCT-15 colon = test system: HCT-15 colon

How did the GI50 (NCI-H23 lung) turn out when `COc1ccc(C(=O)/C=C/c2cccc(Cl)c2)cc1S(N)(=O)=O` was run?
Its GI50 is 1.78 µM.

What about the TGI (NCI-H23 lung) of the same compound?
The TGI was 3.5 µM.

And the GI50 (K-562 leukemia)?
Its GI50 is 2.13 µM.

And the TGI (K-562 leukemia)?
Its TGI is > 100 µM.

And the GI50 (A498 renal)?
Its GI50 is 16.3 µM.

And the TGI (A498 renal)?
The TGI was 30.5 µM.

And the GI50 (KM12 colon)?
Its GI50 is 1.61 µM.

And the TGI (KM12 colon)?
Its TGI is 3.75 µM.

And the GI50 (HOP-92 NSCLC)?
Its GI50 is 2.28 µM.

What about the TGI (HOP-92 NSCLC) of the same compound?
Its TGI is 18.6 µM.

And the GI50 (HCC-2998 colon)?
The GI50 was 1.6 µM.

What about the TGI (HCC-2998 colon) of the same compound?
The TGI was 3.06 µM.

What about the GI50 (OVCAR-5 ovarian) of the same compound?
Its GI50 is 1.87 µM.

What about the TGI (OVCAR-5 ovarian) of the same compound?
Its TGI is 4.76 µM.

What about the GI50 (HT29 colon) of the same compound?
Its GI50 is 1.7 µM.

And the TGI (HT29 colon)?
The TGI was 3.4 µM.

And the GI50 (UO-31 renal)?
The GI50 was 1.29 µM.

And the TGI (UO-31 renal)?
The TGI was 2.73 µM.

What about the GI50 (RPMI-8226 leukemia) of the same compound?
Its GI50 is 2.28 µM.

And the TGI (RPMI-8226 leukemia)?
The TGI was 6.67 µM.

And the GI50 (SK-MEL-28 melanoma)?
Its GI50 is 2.78 µM.

And the TGI (SK-MEL-28 melanoma)?
The TGI was 9.4 µM.

And the GI50 (MDA-MB-468 breast)?
The GI50 was 1.41 µM.

What about the TGI (MDA-MB-468 breast) of the same compound?
Its TGI is 2.93 µM.

And the GI50 (SF-539 CNS)?
The GI50 was 1.75 µM.

And the TGI (SF-539 CNS)?
The TGI was 3.78 µM.

And the GI50 (T-47D breast)?
The GI50 was 2.14 µM.

What about the TGI (T-47D breast) of the same compound?
Its TGI is 6.68 µM.

What about the GI50 (NCI-H226 lung) of the same compound?
The GI50 was 2.83 µM.

What about the TGI (NCI-H226 lung) of the same compound?
The TGI was 11.9 µM.

And the GI50 (MDA-MB-231 breast)?
Its GI50 is 2.26 µM.

What about the TGI (MDA-MB-231 breast) of the same compound?
The TGI was 5.9 µM.

What about the GI50 (SF-268 CNS) of the same compound?
The GI50 was 3.27 µM.

What about the TGI (SF-268 CNS) of the same compound?
The TGI was 13 µM.

And the GI50 (M14 melanoma)?
Its GI50 is 2.13 µM.

And the TGI (M14 melanoma)?
Its TGI is 6.93 µM.

And the GI50 (LOX IMVI melanoma)?
Its GI50 is 1.3 µM.

What about the TGI (LOX IMVI melanoma) of the same compound?
Its TGI is 2.57 µM.

What about the GI50 (MOLT-4 leukemia) of the same compound?
The GI50 was 2.38 µM.

What about the TGI (MOLT-4 leukemia) of the same compound?
The TGI was 6.15 µM.

What about the GI50 (HS 578T breast) of the same compound?
The GI50 was 10.7 µM.

What about the TGI (HS 578T breast) of the same compound?
The TGI was 50.9 µM.

What about the GI50 (MDA-MB-435) of the same compound?
Its GI50 is 3.2 µM.

What about the TGI (MDA-MB-435) of the same compound?
Its TGI is 12.1 µM.

What about the GI50 (NCI/ADR-RES ovarian) of the same compound?
Its GI50 is 2.29 µM.

And the TGI (NCI/ADR-RES ovarian)?
Its TGI is 6.48 µM.

And the GI50 (OVCAR-3 ovarian)?
Its GI50 is 1.55 µM.

What about the TGI (OVCAR-3 ovarian) of the same compound?
Its TGI is 3.39 µM.

And the GI50 (UACC-257 melanoma)?
The GI50 was 5.53 µM.

And the TGI (UACC-257 melanoma)?
The TGI was 18.9 µM.

What about the GI50 (PC-3 prostate) of the same compound?
Its GI50 is 2.23 µM.

And the TGI (PC-3 prostate)?
The TGI was 6.18 µM.

And the GI50 (OVCAR-8 ovarian)?
Its GI50 is 2.81 µM.

And the TGI (OVCAR-8 ovarian)?
Its TGI is 11.7 µM.

What about the GI50 (786-0 renal) of the same compound?
Its GI50 is 1.57 µM.

What about the TGI (786-0 renal) of the same compound?
The TGI was 3.49 µM.

And the GI50 (HCT-15 colon)?
The GI50 was 1.14 µM.

And the TGI (HCT-15 colon)?
The TGI was 2.59 µM.
